Test system: 252836-082-R-J2-PDC tumor spheroids, viability
Test: Anticancer human tumor 252836-082-R-J2-PDC patient-derived head and neck squamous cell carcinoma cell line growth inhibition [PI3K]
Settings: spheroids with HUVEC and MSC; for viability, T/C: stronger effect = lower value
Method in brief: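 Three cell types, namely tumor cells, endothelial cells and mesenchymal stem cells, formed each spheroid. Combinations with four PI3K inhibitors were screened at clinically achievable concentrations decreasing by half-log, and spheroid viability was recorded.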

[1] = curve of first compound, second compound 0.00316 µM
[2] = curve of first compound, second compound 0.01 µM
[3] = curve of first compound, second compound 0.0316 µM
[4] = curve of first compound, second compound 0.1 µM
[5] = curve of first compound, second compound 0.316 µM
[6] = curve of first compound, second compound 1 µM
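Also: spheroids exposed to agents for seven days before readout.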
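For viability, T/C in this document: percent of vehicle DMSO control viability so 100% = untreated growth.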

Cn1cnc2c(F)c(Nc3ccc(Br)cc3Cl)c(C(=O)NOCCO)cc21 + CC(Nc1ccc2c(c1)OCCn1cc(N3C(=O)OCC3C(F)F)nc1-2)C(N)=O gave an IC50 [1] greater than 3000 nM, an IC50 [2] of 2420 nM and an IC50 [3] of 1500 nM. For the same compound, the IC50 [4] was 558 nM, the IC50 [5] was less than 9.49 nM and the IC50 [6] was less than 9.49 nM. It also gave a viability, T/C (second compound 0.00316 µM, first compound 0.00949 µM) of 81.4%, a viability, T/C (second compound 0.00316 µM, first compound 0.03 µM) of 73.8% and a viability, T/C (second compound 0.00316 µM, first compound 0.0949 µM) of 86.3%. The viability, T/C (second compound 0.00316 µM, first compound 0.3 µM) was 79.6%, the viability, T/C (second compound 0.00316 µM, first compound 0.949 µM) was 72.4% and the viability, T/C (second compound 0.00316 µM, first compound 3 µM) was 52.1%. The viability, T/C (second compound 0.01 µM, first compound 0.00949 µM) was 81.7%, the viability, T/C (second compound 0.01 µM, first compound 0.03 µM) was 71.2% and the viability, T/C (second compound 0.01 µM, first compound 0.0949 µM) was 78.5%. The viability, T/C (second compound 0.01 µM, first compound 0.3 µM) was 76.9%, the viability, T/C (second compound 0.01 µM, first compound 0.949 µM) was 73.8% and the viability, T/C (second compound 0.01 µM, first compound 3 µM) was 44.5%. It also gave a viability, T/C (second compound 0.0316 µM, first compound 0.00949 µM) of 66.1%, a viability, T/C (second compound 0.0316 µM, first compound 0.03 µM) of 60.7% and a viability, T/C (second compound 0.0316 µM, first compound 0.0949 µM) of 77.9%. It also gave a viability, T/C (second compound 0.0316 µM, first compound 0.3 µM) of 65.2%, a viability, T/C (second compound 0.0316 µM, first compound 0.949 µM) of 55.1% and a viability, T/C (second compound 0.0316 µM, first compound 3 µM) of 42.4%. For the same compound, the viability, T/C (second compound 0.1 µM, first compound 0.00949 µM) was 58.9%, the viability, T/C (second compound 0.1 µM, first compound 0.03 µM) was 54.7% and the viability, T/C (second compound 0.1 µM, first compound 0.0949 µM) was 58.4%. The viability, T/C (second compound 0.1 µM, first compound 0.3 µM) was 51.7%, the viability, T/C (second compound 0.1 µM, first compound 0.949 µM) was 47.8% and the viability, T/C (second compound 0.1 µM, first compound 3 µM) was 31.4%. For the same compound, the viability, T/C (second compound 0.316 µM, first compound 0.00949 µM) was 49.9%, the viability, T/C (second compound 0.316 µM, first compound 0.03 µM) was 47.6% and the viability, T/C (second compound 0.316 µM, first compound 0.0949 µM) was 47.5%. It also gave a viability, T/C (second compound 0.316 µM, first compound 0.3 µM) of 46.3%, a viability, T/C (second compound 0.316 µM, first compound 0.949 µM) of 30.8% and a viability, T/C (second compound 0.316 µM, first compound 3 µM) of 18.2%. For the same compound, the viability, T/C (second compound 1 µM, first compound 0.00949 µM) was 42.5%, the viability, T/C (second compound 1 µM, first compound 0.03 µM) was 40% and the viability, T/C (second compound 1 µM, first compound 0.0949 µM) was 37%. For the same compound, the viability, T/C (second compound 1 µM, first compound 0.3 µM) was 38%, the viability, T/C (second compound 1 µM, first compound 0.949 µM) was 29.1% and the viability, T/C (second compound 1 µM, first compound 3 µM) was 13.3%.

Compound CCCS(=O)(=O)Nc1ccc(F)c(C(=O)c2c[nH]c3ncc(-c4ccc(Cl)cc4)cc23)c1F + COc1c(OCCCN2CCOCC2)ccc2c3n(c(=NC(=O)c4cnc(N)nc4)nc12)CCN3 has an IC50 [1] of 4400 nM, an IC50 [2] of 4970 nM and an IC50 [3] of 2960 nM. The IC50 [4] was less than 31.6 nM, the IC50 [5] was less than 31.6 nM and the IC50 [6] was less than 31.6 nM. For the same compound, the viability, T/C (second compound 0.00316 µM, first compound 0.0316 µM) was 88.2%, the viability, T/C (second compound 0.00316 µM, first compound 0.1 µM) was 92.8% and the viability, T/C (second compound 0.00316 µM, first compound 0.316 µM) was 80.6%. It also gave a viability, T/C (second compound 0.00316 µM, first compound 1 µM) of 90.1%, a viability, T/C (second compound 0.00316 µM, first compound 3.16 µM) of 67.2% and a viability, T/C (second compound 0.00316 µM, first compound 10 µM) of 7.48%. The viability, T/C (second compound 0.01 µM, first compound 0.0316 µM) was 71.8%, the viability, T/C (second compound 0.01 µM, first compound 0.1 µM) was 73.6% and the viability, T/C (second compound 0.01 µM, first compound 0.316 µM) was 72.9%. For the same compound, the viability, T/C (second compound 0.01 µM, first compound 1 µM) was 87.5%, the viability, T/C (second compound 0.01 µM, first compound 3.16 µM) was 79.7% and the viability, T/C (second compound 0.01 µM, first compound 10 µM) was 8.12%. It also gave a viability, T/C (second compound 0.0316 µM, first compound 0.0316 µM) of 64.8%, a viability, T/C (second compound 0.0316 µM, first compound 0.1 µM) of 57.6% and a viability, T/C (second compound 0.0316 µM, first compound 0.316 µM) of 67.9%. For the same compound, the viability, T/C (second compound 0.0316 µM, first compound 1 µM) was 59%, the viability, T/C (second compound 0.0316 µM, first compound 3.16 µM) was 49.8% and the viability, T/C (second compound 0.0316 µM, first compound 10 µM) was 9.78%. For the same compound, the viability, T/C (second compound 0.1 µM, first compound 0.0316 µM) was 32.3%, the viability, T/C (second compound 0.1 µM, first compound 0.1 µM) was 39.8% and the viability, T/C (second compound 0.1 µM, first compound 0.316 µM) was 43.3%. For the same compound, the viability, T/C (second compound 0.1 µM, first compound 1 µM) was 43.3%, the viability, T/C (second compound 0.1 µM, first compound 3.16 µM) was 31.7% and the viability, T/C (second compound 0.1 µM, first compound 10 µM) was 4.74%. It also gave a viability, T/C (second compound 0.316 µM, first compound 0.0316 µM) of 16.1%, a viability, T/C (second compound 0.316 µM, first compound 0.1 µM) of 15.8% and a viability, T/C (second compound 0.316 µM, first compound 0.316 µM) of 16.7%. For the same compound, the viability, T/C (second compound 0.316 µM, first compound 1 µM) was 19.4%, the viability, T/C (second compound 0.316 µM, first compound 3.16 µM) was 18.1% and the viability, T/C (second compound 0.316 µM, first compound 10 µM) was 1.83%. It also gave a viability, T/C (second compound 1 µM, first compound 0.0316 µM) of 5.69%, a viability, T/C (second compound 1 µM, first compound 0.1 µM) of 5.15% and a viability, T/C (second compound 1 µM, first compound 0.316 µM) of 7.11%. The viability, T/C (second compound 1 µM, first compound 1 µM) was 7.02%, the viability, T/C (second compound 1 µM, first compound 3.16 µM) was 5.99% and the viability, T/C (second compound 1 µM, first compound 10 µM) was 1.31%.

In the case of C[C@@H](NC(=O)c1ncnc(N)c1Cl)c1ncc(C(=O)Nc2cc(C(F)(F)F)c(Cl)cn2)s1, the viability, T/C (compound 0.0316 µM) is reported as 98.2% [middle of 4 runs], the viability, T/C (compound 0.1 µM) is reported as 93% [middle of 4 runs] and the viability, T/C (compound 0.316 µM) is reported as 104% [middle of 4 runs]. For the same compound, the viability, T/C (compound 1 µM) was 109% [middle of 4 runs], the viability, T/C (compound 3.16 µM) was 96.5% [middle of 4 runs] and the viability, T/C (compound 10 µM) was 87.4% [middle of 4 runs]. The IC50 (curve of compound) was greater than 10000 nM.

From PubChem BioAssay AID1963985 (Molecular Pharmacology Branch, DTP, NCI, 2024)
